Data from patent US20180148418A1, “AMIDO-SUBSTITUTED CYCLOHEXANE DERIVATIVES” (Bayer Pharma Aktiengesellschaft, priority 2015, published 2018).
pIC50: −log10 of the molar value.

Key:
[1] = target: T1, TNKS1 (Homo sapiens, UniProt O95271); test: TNKS1 Assay B (auto-parsylation, [3H]-NAD+ SPA); format: biochemical; settings: 6 nM TNKS1, auto-parsylation, over night at room temperature
T1 construct: purchased BPS Bioscience, San Diego, USA 80579 (TNKS1 Histone Ribosylation Assay Kit)
T1 sequence (O95271 1-1327): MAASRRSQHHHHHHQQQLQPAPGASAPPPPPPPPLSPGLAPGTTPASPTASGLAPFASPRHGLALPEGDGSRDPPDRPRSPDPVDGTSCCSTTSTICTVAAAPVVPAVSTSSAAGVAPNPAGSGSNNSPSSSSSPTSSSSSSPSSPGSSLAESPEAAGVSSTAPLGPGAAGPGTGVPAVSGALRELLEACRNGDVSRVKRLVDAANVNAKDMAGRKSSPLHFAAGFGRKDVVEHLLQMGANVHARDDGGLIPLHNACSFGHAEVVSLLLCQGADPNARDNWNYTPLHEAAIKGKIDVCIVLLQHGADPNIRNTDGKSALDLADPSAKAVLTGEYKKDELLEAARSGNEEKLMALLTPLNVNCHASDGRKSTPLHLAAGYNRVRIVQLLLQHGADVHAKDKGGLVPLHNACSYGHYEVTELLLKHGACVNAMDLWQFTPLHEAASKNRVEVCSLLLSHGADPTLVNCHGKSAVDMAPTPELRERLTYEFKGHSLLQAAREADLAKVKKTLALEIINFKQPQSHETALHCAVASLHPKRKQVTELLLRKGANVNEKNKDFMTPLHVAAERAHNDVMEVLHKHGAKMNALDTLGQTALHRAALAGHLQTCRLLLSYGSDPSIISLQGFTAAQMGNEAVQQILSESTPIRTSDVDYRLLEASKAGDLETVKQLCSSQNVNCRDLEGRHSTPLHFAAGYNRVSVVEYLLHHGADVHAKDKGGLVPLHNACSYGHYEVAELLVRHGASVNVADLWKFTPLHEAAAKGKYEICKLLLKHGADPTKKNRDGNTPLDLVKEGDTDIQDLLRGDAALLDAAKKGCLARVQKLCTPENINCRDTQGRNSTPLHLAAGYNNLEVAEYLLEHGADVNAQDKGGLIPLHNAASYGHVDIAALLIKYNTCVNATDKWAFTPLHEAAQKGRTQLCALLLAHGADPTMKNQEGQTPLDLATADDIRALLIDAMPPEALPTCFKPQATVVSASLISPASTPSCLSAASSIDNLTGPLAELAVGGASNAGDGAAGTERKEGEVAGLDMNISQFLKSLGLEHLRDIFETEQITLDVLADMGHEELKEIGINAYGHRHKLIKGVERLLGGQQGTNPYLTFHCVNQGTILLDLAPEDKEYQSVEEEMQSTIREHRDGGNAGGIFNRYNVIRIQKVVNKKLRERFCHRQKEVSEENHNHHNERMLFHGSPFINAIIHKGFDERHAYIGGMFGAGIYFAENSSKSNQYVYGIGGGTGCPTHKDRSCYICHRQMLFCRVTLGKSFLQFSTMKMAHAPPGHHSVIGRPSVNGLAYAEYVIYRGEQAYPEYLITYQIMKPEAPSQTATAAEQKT

[2] = test system: HEK293 cells cotransfected with the FOP control vector; test: HEK293 FOP assay (control reporter with non-functional TCF elements); format: cell-based; settings: Homo sapiens, 16 hours
Method in brief: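 Compound series from 50 μM down to 15 nM, prediluted in DMSO then 50-fold into CAFTY buffer (pH 7.4, 2 mM Ca2+, 0.01% BSA), tested alongside TOP cells on a Geneticin-selected HEK293 FOP line whose TCF elements are replaced by a random sequence; recombinant human Wnt-3a applied at 2500-5 ng/ml.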

| SMILES | pIC50 [1] | pIC50 [2] |
| --- | --- | --- |
| O=C(N[C@H]1CC[C@H](C(=O)Nc2ccc(F)cc2Cl)CC1)c1[nH]cnc1C(=O)N1CC(F)(F)C1 [Example 72, N-{trans-4-[(2-chloro-4-fluorophenyl)carbamoyl]cyclohexyl}-4-[(3,3-difluoroazetidin-1-yl)carbonyl]-1H-imidazole-5-carboxamide] | 7.26 | ≤ 4.30 |
| COC(C)(C)CNC(=O)c1nc[nH]c1C(=O)N[C@H]1CC[C@H](C(=O)Nc2ccc(F)cc2Cl)CC1 [Example 73, N^5-{trans-4-[(2-chloro-4-fluorophenyl)carbamoyl]cyclohexyl}-N^4-(2-methoxy-2-methylpropyl)-1H-imidazole-4,5-dicarboxamide] | 6.57 | 4.72 |
| O=C(NCCC1CC1)c1nc[nH]c1C(=O)N[C@H]1CC[C@H](C(=O)Nc2ccc(F)cc2Cl)CC1 [Example 74, N^5-{trans-4-[(2-chloro-4-fluorophenyl)carbamoyl]cyclohexyl}-N^4-(2-cyclopropylethyl)-1H-imidazole-4,5-dicarboxamide] | 7.08 | 4.49 |
| CC(C)(O)CNC(=O)c1nc[nH]c1C(=O)N[C@H]1CC[C@H](C(=O)Nc2ccc(F)cc2Cl)CC1 [Example 75, N^5-{trans-4-[(2-chloro-4-fluorophenyl)carbamoyl]cyclohexyl}-N^4-(2-hydroxy-2-methylpropyl)-1H-imidazole-4,5-dicarboxamide] | 7.08 | ≤ 4.30 |
| CC(C)OCCNC(=O)c1nc[nH]c1C(=O)N[C@H]1CC[C@H](C(=O)Nc2ccc(F)cc2Cl)CC1 [Example 76, N^5-{trans-4-[(2-chloro-4-fluorophenyl)carbamoyl]cyclohexyl}-N^4-(2-isopropoxyethyl)-1H-imidazole-4,5-dicarboxamide] | 7.03 | ≤ 4.30 |
| CC(C)NCCNC(=O)c1nc[nH]c1C(=O)N[C@H]1CC[C@H](C(=O)Nc2ccc(F)cc2Cl)CC1 [Example 77, N^5-{trans-4-[(2-chloro-4-fluorophenyl)carbamoyl]cyclohexyl}-N^4-[2-(isopropylamino)ethyl]-1H-imidazole-4,5-dicarboxamide] | 7.43 | ≤ 4.30 |
| O=C(NCC1CCCO1)c1nc[nH]c1C(=O)N[C@H]1CC[C@H](C(=O)Nc2ccc(F)cc2Cl)CC1 (stereo partly drawn) [Example 78, N^5-{trans-4-[(2-chloro-4-fluorophenyl)carbamoyl]cyclohexyl}-N^4-(tetrahydrofuran-2-ylmethyl)-1H-imidazole-4,5-dicarboxamide] | 7.12 | 5.01 |
| O=C(NC[C@@H]1CCCO1)c1nc[nH]c1C(=O)N[C@H]1CC[C@H](C(=O)Nc2ccc(F)cc2Cl)CC1 [Example 79, N^5-{trans-4-[(2-chloro-4-fluorophenyl)carbamoyl]cyclohexyl}-N^4-[(2S)-tetrahydrofuran-2-ylmethyl]-1H-imidazole-4,5-dicarboxamide] | 6.77 | 4.37 |
| O=C(NC[C@H]1CCCO1)c1nc[nH]c1C(=O)N[C@H]1CC[C@H](C(=O)Nc2ccc(F)cc2Cl)CC1 [Example 80, N^5-{trans-4-[(2-chloro-4-fluorophenyl)carbamoyl]cyclohexyl}-N^4-[(2R)-tetrahydrofuran-2-ylmethyl]-1H-imidazole-4,5-dicarboxamide] | 7.21 | 4.64 |
| COC(C)CNC(=O)c1nc[nH]c1C(=O)N[C@H]1CC[C@H](C(=O)Nc2ccc(F)cc2Cl)CC1 (stereo partly drawn) [Example 81, N^5-{trans-4-[(2-chloro-4-fluorophenyl)carbamoyl]cyclohexyl}-N^4-(2-methoxypropyl)-1H-imidazole-4,5-dicarboxamide] | 7.00 | 5.17 |
| COCC(C)NC(=O)c1nc[nH]c1C(=O)N[C@H]1CC[C@H](C(=O)Nc2ccc(F)cc2Cl)CC1 (stereo partly drawn) [Example 82, N^5-{trans-4-[(2-chloro-4-fluorophenyl)carbamoyl]cyclohexyl}-N^4-(1-methoxypropan-2-yl)-1H-imidazole-4,5-dicarboxamide] | 6.52 | ≤ 4.30 |
| COC[C@H](C)NC(=O)c1nc[nH]c1C(=O)N[C@H]1CC[C@H](C(=O)Nc2ccc(F)cc2Cl)CC1 [Example 83, N^5-{trans-4-[(2-chloro-4-fluorophenyl)carbamoyl]cyclohexyl}-N^4-[(2S)-1-methoxypropan-2-yl]-1H-imidazole-4,5-dicarboxamide] | 6.21 | 4.54 |
| COC[C@@H](C)NC(=O)c1nc[nH]c1C(=O)N[C@H]1CC[C@H](C(=O)Nc2ccc(F)cc2Cl)CC1 [Example 84, N^5-{trans-4-[(2-chloro-4-fluorophenyl)carbamoyl]cyclohexyl}-N^4-[(2R)-1-methoxypropan-2-yl]-1H-imidazole-4,5-dicarboxamide] | 6.43 | ≤ 4.30 |
| COC(C)(C)CNC(=O)c1nc[nH]c1C(=O)N[C@H]1CC[C@H](C(=O)Nc2cc(F)c(F)cc2Cl)CC1 [Example 85, N^5-{trans-4-[(2-chloro-4,5-difluorophenyl)carbamoyl]cyclohexyl}-N^4-(2-methoxy-2-methylpropyl)-1H-imidazole-4,5-dicarboxamide] | 7.31 | 4.62 |
| O=C(NCC1CCCO1)c1nc[nH]c1C(=O)N[C@H]1CC[C@H](C(=O)Nc2cc(F)c(F)cc2Cl)CC1 (stereo partly drawn) [Example 86, N^5-{trans-4-[(2-chloro-4,5-difluorophenyl)carbamoyl]cyclohexyl}-N^4-(tetrahydrofuran-2-ylmethyl)-1H-imidazole-4,5-dicarboxamide] | 7.52 | 4.85 |
| COCC(C)NC(=O)c1nc[nH]c1C(=O)N[C@H]1CC[C@H](C(=O)Nc2cc(F)c(F)cc2Cl)CC1 (stereo partly drawn) [Example 87, N^5-{trans-4-[(2-chloro-4,5-difluorophenyl)carbamoyl]cyclohexyl}-N^4-(1-methoxypropan-2-yl)-1H-imidazole-4,5-dicarboxamide] | 7.57 | ≤ 4.30 |
| CNC(=O)c1nc[nH]c1C(=O)N[C@H]1CC[C@H](C(=O)Nc2cc(N3CCOCC3)ccc2Cl)CC1 [Example 88, N^5-(trans-4-{[2-chloro-5-(morpholin-4-yl)phenyl]carbamoyl}cyclohexyl)-N^4-methyl-1H-imidazole-4,5-dicarboxamide] | 5.44 | ≤ 4.30 |
| O=C(NCC1CCCO1)c1nc[nH]c1C(=O)N[C@H]1CC[C@H](C(=O)Nc2cc(N3CCOCC3)ccc2Cl)CC1 (stereo partly drawn) [Example 89, N^5-(trans-4-{[2-chloro-5-(morpholin-4-yl)phenyl]carbamoyl}cyclohexyl)-N^4-(tetrahydrofuran-2-ylmethyl)-1H-imidazole-4,5-dicarboxamide] | 5.92 | 4.62 |
| COC(C)(C)CNC(=O)c1nc[nH]c1C(=O)N[C@H]1CC[C@H](C(=O)Nc2cc(N3CCOCC3)ccc2Cl)CC1 [Example 90, N^5-(trans-4-{[2-chloro-5-(morpholin-4-yl)phenyl]carbamoyl}cyclohexyl)-N^4-(2-methoxy-2-methylpropyl)-1H-imidazole-4,5-dicarboxamide] | 5.51 | 4.48 |
| CC(C)(O)CNC(=O)c1nc[nH]c1C(=O)N[C@H]1CC[C@@]2(CCN(c3cccc(Cl)c3)C2=O)CC1 [Example 284, N^5-[(trans)-2-(3-chlorophenyl)-1-oxo-2-azaspiro[4.5]dec-8-yl]-N^4-(2-hydroxy-2-methylpropyl)-1H-imidazole-4,5-dicarboxamide] | 6.19 | 5.17 |
| COCC(C)NC(=O)c1nc[nH]c1C(=O)N[C@H]1CC[C@@]2(CCN(c3cccc(Cl)c3)C2=O)CC1 (stereo partly drawn) [Example 285, N^5-[(trans)-2-(3-chlorophenyl)-1-oxo-2-azaspiro[4.5]dec-8-yl]-N^4-(1-methoxypropan-2-yl)-1H-imidazole-4,5-dicarboxamide] | 6.20 | 4.80 |
